Experiment [1] relates to THP1 cells. Briefly: p-STAT1 in THP1 cells pre-incubated with sera of immunized rats and treated with IFNr. Format: cell-based. Particulars: 50% sera.
For experiment [2], the target named is T1, human IFNr (Homo sapiens, UniProt P01579).
T1 sequence (P01579 24-166): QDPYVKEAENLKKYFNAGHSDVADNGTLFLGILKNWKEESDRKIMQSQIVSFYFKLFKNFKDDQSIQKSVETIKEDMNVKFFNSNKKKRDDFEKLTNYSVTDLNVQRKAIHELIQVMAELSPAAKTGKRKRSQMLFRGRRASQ
In words: Blocking of hIFNr detection by sera of immunized rats. Format: binding. Particulars: sera incubated with 200 pg/mL of human IFNr. The protocol: Blood plasma from patients and donors was serially diluted (10^−1 to 10^−6) and incubated with recombinant human IFNr at a final concentration of 200 pg/mL for 1 hour at 37° C. The IFNr level was measured with a human IFNr ELISA kit from BD Biosciences according to the manufacturer's recommendations. All experiments were performed in duplicate.
However, blood sera from Noc2 peptide-immunized rats (n=4) and Peptide 6-immunized rats (n=2) at dilutions of up to 1/10^2 inhibited the detection of hIFNr.

The subject of experiment [3] is WKY/NcrlNarl rats. In words: Immunization of rats with Noc2 or IFNr peptide conjugated with OVA. Format: in vivo, rat. Particulars: 0.25 mg peptide-OVA, booster every two weeks. As to the method: The inventor immunized WKY/NcrlNarl rats with 0.25 mg Noc2 or IFNr[…] peptide (Noc2: […] (SEQ NO: 31); IFNr: […] (SEQ NO: 32)) conjugated with ovalbumin (OVA) and gave a booster dose every two weeks after the initial injection (day 0). After 70 days, the inventor checked the antibody production level by dot blot or ELISA at each injection. All rats were sacrificed ten days after the tenth injection (day 136) and whole blood was collected. After collection of the whole blood, the blood was allowed to clot by leaving it undisturbed at room temperature 15 minutes. Clots were removed by centrifuging at 1500 g for 10 minutes in a refrigerated centrifuge. Sera were aliquoted and stored at −20° C. for further use.
Blood sera from pre-immunized rats (n=6), Noc2 peptide-immunized rats (n=4) and Peptide 6-immunized rats (n=2) were mapped to control peptide, Peptide 6 and Noc2 peptide from Aspergillus terreus or Aspergillus fumigatus. This is represented as the mean optical density (OD) at 405 nm.

Ends that are not written are not given here.

As for “CAAKTGKRKRSQM (also: conjugated to ovalbumin; UniProt P01579 146-157, looked up, fragment)”, the “p-STAT1 signaling after recombinant IFNr in presence of sera of immunized rats” value in experiment [1] was “decreased up-regulation of p-STAT1 signaling”. Also, the “blocking of hIFNr detection by sera of immunized rats (serum dilution)” value in experiment [2] is given as “can block human recombinant IFNr”. Further, the “antibodies developed after immunization” value in experiment [3] is “developed antibodies to human IFNr, which could cross-react with Aspergillus Noc2”.

The record behind these values is US10273278B2, “Epitope recognized by anti-interferon gamma autoantibodies in patients with disseminated mycobacterial infections and the application therefor” (priority 2015, dated 2019).
